Laboratory results from paper PMC9395488, “First-in-human study of IM156, a novel potent biguanide oxidative phosphorylation (OXPHOS) inhibitor, in patients with advanced solid tumors” (Investigational New Drugs, 2022).

Test system: patients with advanced solid tumors
Assay: First-in-human phase 1 dose-escalation study: safety, DLTs, adverse events
Assay type: in vivo
Description: This multicenter first-in-human dose-escalation phase 1 study (clinicaltrials.gov identifier: NCT03272256) was designed to determine the MTD or RP2D and to evaluate the safety and tolerability of IM156. Secondary endpoints included PK characteristics, efficacy assessment (objective response rate [ORR], disease control rate [DCR], duration of response [DoR] and progression-free survival [PFS]). Furthermore, exploratory objectives included identification and profiling of IM156 metabolites, evaluations of exploratory PD markers of IM156, and evaluations of any potential relationship between putative biomarkers and safety/efficacy parameters of IM156. The study was conducted in accordance with Good Clinical Practice, the International Council for Harmonisation, and guidelines governing clinical study conduct and the ethical principles originating from the Declaration of Helsinki. The study was approved by each Institutional Review Board and patients provided written informed consent. Patients were enrolled at three sites in South Korea.
The initial dose and schedule of IM156 was chosen based on animal toxicology studies. […] IM156 was administered in the fasted state, with no food for at least 2 h before and 1 h after dosing.
Three DLT-evaluable patients were enrolled at each dose level. If there were no DLTs or other prohibitive adverse events (AEs), the Safety Committee was allowed to recommend escalation to the next highest dose level. If 1 DLT occurred in the first 3 DLT-evaluable patients, enrollment in that cohort was expanded to an additional 3 DLT-evaluable patients; if ≥ 2 DLTs were reported in a cohort, that dose was considered above the MTD.
Safety was assessed through vital signs, weight, laboratory assessments, physical examinations, electrocardiogram, and reporting of AEs as graded by the National Cancer Institute’s Common Terminology Criteria for Adverse Events v4.03 (NCI-CTCAE).
DLTs were defined as the following AEs if they were attributed as related to IM156: asymptomatic grade 4 neutropenia lasting for ≥ 5 days; febrile neutropenia, regardless of grade; grade 4 thrombocytopenia or grade 3 thrombocytopenia with bleeding; any grade ≥ 3 non-hematologic AE (except grade 3 hypertension and grade 3 nausea, vomiting or diarrhea for which proper measures for prevention and treatment were not implemented, and alopecia); blood lactate levels > 5 mmol; grade ≥ 2 AE prohibiting dosing of IM156 for ≥ 21 continuous days except for alterations in serum calcium or phosphorus levels. The safety analysis includes all patients who received at least one dose of study drug.
The safety population was defined as all patients who received at least one dose of IM156. The PK population was not defined in the protocol but included all patients with sufficient PK data to perform adequate PK modeling. The efficacy population included all patients who underwent at least one tumor imaging assessment while receiving IM156. Safety was assessed using descriptive statistics (e.g., DLTs, AEs, laboratory tests, physical examination, 12-lead ECG). The incidence and number of events were reported for the DLTs observed in Cycle 1 per dose group. […] Adverse events and TRAEs were standardized with the System Organ Class and the Preferred Term using the Medical Dictionary for Regulatory Activities v23.0. In addition, TEAEs, serious adverse events (SAEs), TEAE severity, and TEAEs leading to withdrawal were presented by dose group. Efficacy data were to be presented by Waterfall and Swim Lane plots. Time to event endpoints (e.g., DoR, PFS) were determined using Kaplan–Meier estimations with the median value for each endpoint summarized.

[1] = DL4 800 mg orally every other day (n=3)
[2] = DL5 1200 mg orally every other day (n=3)

## NC(=Nc1ccc(OC(F)(F)F)cc1)N=C(N)N1CCCC1 [IM156]
[1]
  TEAE Anaemia grade 4: 0
  TEAE Appendicitis perforated grade 1: 0
  TEAE Appendicitis perforated grade 2: 0
  TEAE Appendicitis perforated grade 3: 0
  TEAE Appendicitis perforated grade 4: 0
  TEAE Back pain grade 1: 0
  TEAE Back pain grade 2: 2
  TEAE Back pain grade 3: 0
  TEAE Back pain grade 4: 0
  TEAE Cystitis grade 1: 0
  TEAE Cystitis grade 2: 1
  TEAE Cystitis grade 3: 0
  TEAE Cystitis grade 4: 0
  TEAE Dry skin grade 1: 0
  TEAE Dry skin grade 2: 0
  TEAE Dry skin grade 3: 0
  TEAE Dry skin grade 4: 0
  TEAE Flank pain grade 1: 0
  TEAE Flank pain grade 2: 0
  TEAE Flank pain grade 3: 0
  TEAE Flank pain grade 4: 0
  TEAE Hypertension grade 1: 0
  TEAE Hypertension grade 2: 0
  TEAE Hypertension grade 3: 0
  TEAE Hypertension grade 4: 0
  TEAE Hypotension grade 1: 0
  TEAE Hypotension grade 2: 0
  TEAE Hypotension grade 3: 0
  TEAE Hypotension grade 4: 0
  TEAE Insomnia grade 1: 0
  TEAE Insomnia grade 2: 0
  TEAE Insomnia grade 3: 0
  TEAE Insomnia grade 4: 0
  TEAE Pain in extremity grade 1: 0
  TEAE Pain in extremity grade 2: 1
  TEAE Pain in extremity grade 3: 0
  TEAE Pain in extremity grade 4: 0
  TEAE Pruritus grade 1: 0
  TEAE Pruritus grade 2: 0
  TEAE Pruritus grade 3: 0
  TEAE Pruritus grade 4: 0
  TEAE Psychiatric disorders grade 1: 0
  TEAE Psychiatric disorders grade 2: 0
  TEAE Psychiatric disorders grade 3: 0
  TEAE Psychiatric disorders grade 4: 0
  TEAE Purpura grade 1: 0
  TEAE Purpura grade 2: 0
  TEAE Purpura grade 3: 0
  TEAE Purpura grade 4: 0
  TEAE Urinary retention grade 1: 0
  TEAE Urinary retention grade 2: 1
  TEAE Urinary retention grade 3: 0
  TEAE Urinary retention grade 4: 0
  TEAE Urinary tract disorder grade 1: 0
  TEAE Urinary tract disorder grade 2: 0
  TEAE Urinary tract disorder grade 3: 0
  TEAE Urinary tract disorder grade 4: 0
DL5 1200 mg QOD (n=3)
  TEAE Abdominal pain, grade 1: 1
  TEAE Alanine aminotransferase increased, grade 3: 1
  TEAE Aspartate aminotransferase increased, grade 2: 1
  TEAE Aspartate aminotransferase increased, grade 3: 1
  TEAE Asthenia, grade 1: 1
  TEAE Blood alkaline phosphatase increased, grade 2: 1
  TEAE Blood alkaline phosphatase increased, grade 3: 1
  TEAE Constipation, grade 1: 1
  TEAE Decreased appetite, grade 1: 1
  TEAE Diarrhoea, grade 1: 1
  TEAE Diarrhoea, grade 2: 1
  TEAE Fatigue, grade 2: 1
  TEAE Gamma-glutamyltransferase increased, grade 2: 1
  TEAE Gamma-glutamyltransferase increased, grade 3: 1
  TEAE Headache, grade 1: 1
  TEAE Hypoalbuminaemia, grade 2: 1
  TEAE Hypocalcemia, grade 2: 1
  TEAE Nausea, grade 1: 1
  TEAE Nausea, grade 3: 1
  TEAE Oropharyngeal pain, grade 1: 1
  TEAE Pyrexia, grade 1: 1
  TEAE Vomiting, grade 1: 1
  TEAE Vomiting, grade 2: 1
DL5 1,200 mg QOD oral, N = 3
  TRAE Abdominal Pain, > G3 (patients): 0
  TRAE Abdominal Pain, All grades (patients): 0
  TRAE Blood Lactic Acid increased, > G3 (patients): 0
  TRAE Blood Lactic Acid increased, All grades (patients): 0
  TRAE Constipation, > G3 (patients): 0
  TRAE Constipation, All grades (patients): 0
  TRAE Decreased appetite, > G3 (patients): 0
  TRAE Decreased appetite, All grades (patients): 1
  TRAE Diarrhoea, > G3 (patients): 0
  TRAE Diarrhoea, All grades (patients): 2
  TRAE Fatigue, > G3 (patients): 0
  TRAE Fatigue, All grades (patients): 0
  TRAE Insomnia, > G3 (patients): 0
  TRAE Insomnia, All grades (patients): 0
  TRAE Nausea, > G3 (patients): 1
  TRAE Nausea, All grades (patients): 2
  TRAE Vomiting, > G3 (patients): 0
  TRAE Vomiting, All grades (patients): 2
[2]
  TEAE Adrenal insufficiency grade 1: 0
  TEAE Adrenal insufficiency grade 2: 1
  TEAE Adrenal insufficiency grade 3: 0
  TEAE Adrenal insufficiency grade 4: 0
  TEAE Anaemia grade 1: 0
  TEAE Anaemia grade 2: 0
  TEAE Anaemia grade 3: 1
  TEAE Anaemia grade 4: 0
  TEAE Appendicitis perforated grade 1: 0
  TEAE Appendicitis perforated grade 2: 0
  TEAE Appendicitis perforated grade 3: 0
  TEAE Appendicitis perforated grade 4: 0
  TEAE Back pain grade 1: 0
  TEAE Back pain grade 2: 0
  TEAE Back pain grade 3: 0
  TEAE Back pain grade 4: 0
  TEAE Cystitis grade 1: 0
  TEAE Cystitis grade 2: 0
  TEAE Cystitis grade 3: 0
  TEAE Cystitis grade 4: 0
